Measurements published in patent publication US10988445B2 (AstraZeneca AB, priority 2015, dated 2021).
Where two headings read alike, the source gives them in different places.

Tested on: human TH17 cells
Test: Inhibition of IL-17 release from human TH17 cells
Assay type: cell-based
Conditions: 96 h, isolated human TH17 cells, 4 days culture, IL-17A by HTRF, read-out: pIC50 IL-17 release (converted)
How it was run: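 TH17 cells (CD4+CXCR3-CCR6+) enriched from healthy-donor PBMC isolated from heparinized whole blood. Supernatants collected on day 4; IL-17A quantified by HTRF.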

| IC50 [nM] | Structure (SMILES) | IC50 (Homo sapiens) [nM] |
| --- | --- | --- |
|  | CS(=O)(=O)c1ccc2c(c1)CN(C(=O)C1(C#N)CC1)C2C(=O)Nc1ccc(C(O)(C(F)(F)F)C(F)(F)F)c(F)c1 (stereo not shown) [Example 439, 2-[(1-Cyanocyclopropyl)carbonyl]-N-[3-fluoro-4-(1,1,1,3,3,3-hexafluoro-2-hydroxypropan-2-yl)phenyl]-5-(methylsulfonyl)-2,3-dihydro-1H-isoindole-1-carboxamide] | 25.1 |
|  | CCS(=O)(=O)c1ccc2c(c1)CNC2C(=O)Nc1ccc(C(O)(C(F)(F)F)C(F)(F)F)cc1 (stereo not shown) [Example 100, 5-(Ethylsulfonyl)-N-[4-(1,1,1,3,3,3-hexafluoro-2-hydroxypropan-2-yl)phenyl]-2,3-dihydro-1H-isoindole-1-carboxamide] | 39.8 |
| 79.4 | COC1(C(=O)N2Cc3cc(S(C)(=O)=O)ccc3C2C(=O)Nc2ccc(C(O)(C(F)(F)F)C(F)(F)F)cc2)CCC1 (stereo not shown) [Example 448, N-[4-(1,1,1,3,3,3-Hexafluoro-2-hydroxypropan-2-yl)phenyl]-2-[(1-methoxycyclobutyl)carbonyl]-5-(methylsulfonyl)-2,3-dihydro-1H-isoindole-1-carboxamide] |  |
|  | O=C(Nc1ccc(C(O)(C(F)(F)F)C(F)(F)F)cc1)C1c2ccc(S(=O)(=O)CC3CC3)cc2CN1C(=O)C1CCOC1 (stereo not shown) [Example 210, 5-[(Cyclopropylmethyl)sulfonyl]-N-[4-(1,1,1,3,3,3-hexafluoro-2-hydroxypropan-2-yl)phenyl]-2-(tetrahydrofuran-3-ylcarbonyl)-2,3-dihydro-1H-isoindole-1-carboxamide] | 25.1 |
|  | COCCS(=O)(=O)c1ccc2c(c1)CN(C(=O)OC)C2C(=O)Nc1ccc(C(O)(C(F)(F)F)C(F)(F)F)cc1 (stereo not shown) [Example 704, Methyl 1-{[4-(1,1,1,3,3,3-hexafluoro-2-hydroxypropan-2-yl)phenyl]carbamoyl}-5-[(2-methoxyethyl)sulfonyl]-1,3-dihydro-2H-isoindole-2-carboxylate] | 25.1 |
|  | O=C(Nc1ccc(C(O)(C(F)(F)F)C(F)(F)F)cc1)C1c2ccc(S(=O)(=O)CC3CC3)cc2CN1C(=O)CC1(O)CC1 (stereo not shown) [Example 206, 5-[(Cyclopropylmethyl)sulfonyl]-N-[4-(1,1,1,3,3,3-hexafluoro-2-hydroxypropan-2-yl)phenyl]-2-[(1-hydroxycyclopropyl)acetyl]-2,3-dihydro-1H-isoindole-1-carboxamide] | 39.8 |
|  | CC1(C(=O)N2Cc3cc(S(C)(=O)=O)ccc3C2C(=O)Nc2ccc(C(O)(C(F)(F)F)C(F)(F)F)cc2)CCO1 (racemic) [Example 445] | 25.1 |
|  | CC(=O)N1Cc2cc(S(C)(=O)=O)ccc2C1C(=O)Nc1ccc(C(O)(C(F)(F)F)C(F)(F)F)cc1F (stereo not shown) [Example 437, 2-Acetyl-N-[2-fluoro-4-(1,1,1,3,3,3-hexafluoro-2-hydroxypropan-2-yl)phenyl]-5-(methylsulfonyl)-2,3-dihydro-1H-isoindole-1-carboxamide] | 20 |
|  | O=C(Nc1ccc(C(O)(C(F)(F)F)C(F)(F)F)cc1)C1c2ccc(S(=O)(=O)C3CC3)cc2CN1C(=O)[C@@H]1CCCO1 (stereo partly drawn) [Example 608, 5-(Cyclopropylsulfonyl)-N-[4-(1,1,1,3,3,3-hexafluoro-2-hydroxypropan-2-yl)phenyl]-2-[(2S)-tetrahydrofuran-2-ylcarbonyl]-2,3-dihydro-1H-isoindole-1-carboxamide] | 39.8 |
|  | CNS(=O)(=O)c1ccc2c(c1)CNC2C(=O)Nc1ccc(C(O)(C(F)(F)F)C(F)(F)F)cc1 (stereo not shown) [Example 300, N-[4-(1,1,1,3,3,3-hexafluoro-2-hydroxypropan-2-yl)phenyl]-5-(methylsulfamoyl)-2,3-dihydro-1H-isoindole-1-carboxamide] | 25.1 |
|  | O=C(Nc1ccc(C(O)(C(F)(F)F)C(F)(F)F)cc1)C1NCc2cc(S(=O)(=O)CC3CC3)ccc21 (stereo not shown) [Example 200, 5-[(Cyclopropylmethyl)sulfonyl]-N-[4-(1,1,1,3,3,3-hexafluoro-2-hydroxypropan-2-yl)phenyl]-2,3-dihydro-1H-isoindole-1-carboxamide] | 31.6 |
|  | O=C(Nc1ccc(C(O)(C(F)(F)F)C(F)(F)F)cc1)C1c2ccc(S(=O)(=O)CC3CC3)cc2CN1C(=O)C1CCCO1 (stereo not shown) [Example 208, 5-[(Cyclopropylmethyl)sulfonyl]-N-[4-(1,1,1,3,3,3-hexafluoro-2-hydroxypropan-2-yl)phenyl]-2-(tetrahydrofuran-2-ylcarbonyl)-2,3-dihydro-1H-isoindole-1-carboxamide] | 20 |
|  | COC(=O)N1Cc2cc(S(=O)(=O)C3CC3)ccc2C1C(=O)Nc1ccc(C(O)(C(F)(F)F)C(F)(F)F)cc1 (stereo not shown) [Example 602, Methyl 5-(cyclopropylsulfonyl)-1-{[4-(1,1,1,3,3,3-hexafluoro-2-hydroxypropan-2-yl)phenyl]carbamoyl}-1,3-dihydro-2H-isoindole-2-carboxylate] | 25.1 |
|  | CCS(=O)(=O)c1ccc2c(c1)CN(C(=O)CC#N)C2C(=O)Nc1ccc(C(O)(C(F)(F)F)C(F)(F)F)cc1 (stereo not shown) [Example 116, 2-(Cyanoacetyl)-5-(ethylsulfonyl)-N-[4-(1,1,1,3,3,3-hexafluoro-2-hydroxypropan-2-yl)phenyl]-2,3-dihydro-1H-isoindole-1-carboxamide] | 200 |
|  | CCOC1(C(=O)N2Cc3cc(S(C)(=O)=O)ccc3C2C(=O)Nc2ccc(C(O)(C(F)(F)F)C(F)(F)F)cc2)CC1 (stereo not shown) [Example 416, 2-[(1-Ethoxycyclopropyl)carbonyl]-N-[4-(1,1,1,3,3,3-hexafluoro-2-hydroxypropan-2-yl)phenyl]-5-(methylsulfonyl)-2,3-dihydro-1H-isoindole-1-carboxamide] | 31.6 |
|  | COC1(C(=O)N2Cc3cc(S(C)(=O)=O)ccc3C2C(=O)Nc2ccc(C(O)(C(F)(F)F)C(F)(F)F)cc2)CCCC1 (stereo not shown) [Example 434] | 25.1 |
|  | CNS(=O)(=O)c1ccc2c(c1)CN(C(=O)COC)C2C(=O)Nc1ccc(C(O)(C(F)(F)F)C(F)(F)F)cc1 (stereo not shown) [Example 308, N-[4-(1,1,1,3,3,3-Hexafluoro-2-hydroxypropan-2-yl)phenyl]-2-(methoxyacetyl)-5-(methylsulfamoyl)-2,3-dihydro-1H-isoindole-1-carboxamide] | 31.6 |
|  | N#CC1(C(=O)N2Cc3cc(S(=O)(=O)C4CC4)ccc3C2C(=O)Nc2ccc(C(O)(C(F)(F)F)C(F)(F)F)cc2)CC1 (stereo not shown) [Example 607, 2-[(1-Cyanocyclopropyl)carbonyl]-5-(cyclopropylsulfonyl)-N-[4-(1,1,1,3,3,3-hexafluoro-2-hydroxypropan-2-yl)phenyl]-2,3-dihydro-1H-isoindole-1-carboxamide] | 39.8 |
|  | CCS(=O)(=O)c1ccc2c(c1)CN(C(=O)C1CCOC1)C2C(=O)Nc1ccc(C(O)(C(F)(F)F)C(F)(F)F)cc1 (stereo not shown) [Example 113, 5-(Ethylsulfonyl)-N-[4-(1,1,1,3,3,3-hexafluoro-2-hydroxypropan-2-yl)phenyl]-2-(tetrahydrofuran-3-ylcarbonyl)-2,3-dihydro-1H-isoindole-1-carboxamide] | 79.4 |
|  | COCCS(=O)(=O)c1ccc2c(c1)CNC2C(=O)Nc1ccc(C(O)(C(F)(F)F)C(F)(F)F)cc1 (stereo not shown) [Example 700, N-(4-(1,1,1,3,3,3-hexafluoro-2-hydroxypropan-2-yl)phenyl)-5-((2-methoxyethyl)sulfonyl)isoindoline-1-carboxamide] | 100 |
|  | CNS(=O)(=O)c1ccc2c(c1)CN(C(=O)C1(OC)CC1)C2C(=O)Nc1ccc(C(O)(C(F)(F)F)C(F)(F)F)cc1 (stereo not shown) [Example 306, N-[4-(1,1,1,3,3,3-Hexafluoro-2-hydroxypropan-2-yl)phenyl]-2-[(1-methoxycyclopropyl)carbonyl]-5-(methylsulfamoyl)-2,3-dihydro-1H-isoindole-1-carboxamide] | 20 |
|  | CC[C@@H](O)C(=O)N1Cc2cc(S(C)(=O)=O)ccc2C1C(=O)Nc1ccc(C(O)(C(F)(F)F)C(F)(F)F)cc1 (single isomer, unassigned) [Example 409, isomer 1] | 63.1 |
